PubChem BioAssay AID248 (DTP/NCI, 2004)
Toxic doses and inconclusive results are not listed. No stated cut-off is given here; in the data, active means T/C of 150% or more; inactive means T/C below 125%.

System: L1210 leukemia ip in BDF1 mice, survival T/C
Assay: NCI In Vivo Anticancer Drug Screen. Data for tumor model L1210 Leukemia (intraperitoneal) in B6D2F1 (BDF1) mice
Settings: endpoint: mean survival time, higher = longer survival
Procedure, shortened: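 Tumor was transplanted into mice, which were then dosed with test compound or vehicle alone. Survival was recorded for each group, and the treated figure was expressed relative to the control figure.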

[1] = dose: 100.0 mg/kg/injection, schedule: Q01DX001 (ip), vehicle: saline
[2] = dose: 100.0 mg/kg/injection, schedule: Q04DX003 (ip), vehicle: saline
[3] = dose: 200.0 mg/kg/injection, schedule: Q01DX001 (ip), vehicle: saline
[4] = dose: 200.0 mg/kg/injection, schedule: Q04DX003 (ip), vehicle: saline
[5] = dose: 400.0 mg/kg/injection, schedule: Q01DX001 (ip), vehicle: saline
[6] = dose: 400.0 mg/kg/injection, schedule: Q04DX003 (ip), vehicle: saline
[7] = dose: 100.0 mg/kg/injection, schedule: Q01DX009 (ip), vehicle: saline with Tween-80
[8] = dose: 200.0 mg/kg/injection, schedule: Q01DX009 (ip), vehicle: saline with Tween-80
[9] = dose: 100.0 mg/kg/injection, schedule: Q04DX002 (ip), vehicle: Klucel (hydroxypropylcellulose) (HPC)
[10] = dose: 200.0 mg/kg/injection, schedule: Q04DX002 (ip), vehicle: Klucel (hydroxypropylcellulose) (HPC)
[11] = dose: 400.0 mg/kg/injection, schedule: Q04DX002 (ip), vehicle: Klucel (hydroxypropylcellulose) (HPC)
[12] = dose: 10.0 mg/kg/injection, schedule: Q01DX001 (ip), vehicle: saline
[13] = dose: 20.0 mg/kg/injection, schedule: Q01DX001 (ip), vehicle: saline
[14] = dose: 100.0 mg/kg/injection, schedule: Q01DX009 (ip), vehicle: Klucel (hydroxypropylcellulose) (HPC)
[15] = dose: 100.0 mg/kg/injection, schedule: Q04DX003 (ip), vehicle: Klucel (hydroxypropylcellulose) (HPC)
[16] = dose: 200.0 mg/kg/injection, schedule: Q01DX009 (ip), vehicle: Klucel (hydroxypropylcellulose) (HPC)
[17] = dose: 200.0 mg/kg/injection, schedule: Q04DX003 (ip), vehicle: Klucel (hydroxypropylcellulose) (HPC)
[18] = dose: 400.0 mg/kg/injection, schedule: Q01DX009 (ip), vehicle: Klucel (hydroxypropylcellulose) (HPC)
[19] = dose: 400.0 mg/kg/injection, schedule: Q04DX003 (ip), vehicle: Klucel (hydroxypropylcellulose) (HPC)

Measured: T/C

CN(C)c1nc(N)nc(Nc2ccc(Br)cc2)c1N=O
inactive: dose: 50.0 mg/kg/injection, schedule: Q01DX001 (ip), vehicle: carboxymethylcellulose (CMC) 109 % of control | dose: 100.0 mg/kg/injection, schedule: Q01DX001 (ip), vehicle: carboxymethylcellulose (CMC) 95 % of control | [1] 105 % of control | dose: 100.0 mg/kg/injection, schedule: Q01DX009 (ip), vehicle: saline 107 % of control | [2] 107 % of control | dose: 200.0 mg/kg/injection, schedule: Q01DX001 (ip), vehicle: carboxymethylcellulose (CMC) 103 % of control | [3] 116 % of control | dose: 200.0 mg/kg/injection, schedule: Q01DX009 (ip), vehicle: saline 119 % of control | [4] 98 % of control | dose: 400.0 mg/kg/injection, schedule: Q01DX001 (ip), vehicle: carboxymethylcellulose (CMC) 95 % of control | [5] 116 % of control | dose: 400.0 mg/kg/injection, schedule: Q01DX009 (ip), vehicle: saline 109 % of control | [6] 96 % of control

O=C1CCCC/C1=C1/C(=O)Nc2ccccc21
inactive: dose: 50.0 mg/kg/injection, schedule: Q01DX009 (ip), vehicle: saline with Tween-80 104 % of control | [7] 118 % of control | [8] 110 % of control

CCOC(=O)CNc1ccc(C(F)(F)F)cc1
inactive: [9] 104 % of control | [10] 104 % of control | [11] 97 % of control

CC(C)CCOC(=O)C(Br)c1ccccc1 (stereo unspecified)
inactive: [7] 95 % of control | dose: 100.0 mg/kg/injection, schedule: Q04DX003 (ip), vehicle: saline with Tween-80 104 % of control | [8] 88 % of control | dose: 200.0 mg/kg/injection, schedule: Q04DX003 (ip), vehicle: saline with Tween-80 99 % of control | dose: 400.0 mg/kg/injection, schedule: Q01DX009 (ip), vehicle: saline with Tween-80 88 % of control | dose: 400.0 mg/kg/injection, schedule: Q04DX003 (ip), vehicle: saline with Tween-80 95 % of control

C1=COC(/C=N/Nc2nnc(N/N=C/C3CCC=CO3)c3ccccc23)CC1 (stereo unspecified)
inactive: dose: 5.0 mg/kg/injection, schedule: Q01DX001 (ip), vehicle: saline 98 % of control | [12] 111 % of control | [13] 96 % of control | dose: 40.0 mg/kg/injection, schedule: Q01DX001 (ip), vehicle: saline 102 % of control

[I][Sn]([c]1ccccc1)([c]1ccccc1)[c]1ccccc1
inactive: dose: 0.25 mg/kg/injection, schedule: Q01DX009 (ip), vehicle: Klucel (hydroxypropylcellulose) (HPC) 93 % of control | dose: 0.5 mg/kg/injection, schedule: Q01DX009 (ip), vehicle: Klucel (hydroxypropylcellulose) (HPC) 101 % of control | dose: 1.0 mg/kg/injection, schedule: Q01DX009 (ip), vehicle: Klucel (hydroxypropylcellulose) (HPC) 97 % of control

Nc1nc2[nH]c(=O)cnc2c(=O)[nH]1
inactive: dose: 50.0 mg/kg/injection, schedule: Q01DX009 (ip), vehicle: Klucel (hydroxypropylcellulose) (HPC) 102 % of control | dose: 50.0 mg/kg/injection, schedule: Q04DX003 (ip), vehicle: Klucel (hydroxypropylcellulose) (HPC) 107 % of control | [14] 111 % of control | [15] 110 % of control | [16] 107 % of control | [17] 102 % of control | [18] 95 % of control | [19] 104 % of control

CC(=O)C(Cc1ccccc1)(c1ccccc1)c1ccccc1
inactive: dose: 50.0 mg/kg/injection, schedule: Q01DX001 (ip), vehicle: saline 103 % of control | [1] 103 % of control | [3] 97 % of control | [5] 97 % of control

COC(=O)C1C(O)C(C)C(O)OC1C(C)C(O)C(C)/C=C\C=C(/C)C(=O)Nc1c(C)c(OC(C)=O)c2c(c1O)C(=O)C(C)=C1OCOC(/C(C)=C/C(C)=O)=C12 (stereo unspecified)
inactive: [2] 95 % of control | [4] 102 % of control | [6] 93 % of control

CCCCCCC(=O)/C=C\c1ccccc1
inactive: dose: 100.0 mg/kg/injection, schedule: Q01DX001 (sc), vehicle: other 94 % of control | dose: 200.0 mg/kg/injection, schedule: Q01DX001 (sc), vehicle: other 91 % of control | dose: 400.0 mg/kg/injection, schedule: Q01DX001 (sc), vehicle: other 100 % of control

Cc1ccc(S(=O)(=O)OCCS(C)(=O)=O)cc1
inactive: dose: 100.0 mg/kg/injection, schedule: Q01DX001 (ip), vehicle: Klucel (hydroxypropylcellulose) (HPC) 102 % of control | [14] 103 % of control | [15] 101 % of control | dose: 200.0 mg/kg/injection, schedule: Q01DX001 (ip), vehicle: Klucel (hydroxypropylcellulose) (HPC) 106 % of control | [16] 101 % of control | [17] 103 % of control | dose: 400.0 mg/kg/injection, schedule: Q01DX001 (ip), vehicle: Klucel (hydroxypropylcellulose) (HPC) 104 % of control | [18] 101 % of control | [19] 97 % of control

CN(C)NCCN1CCN(CCCN2c3ccccc3Sc3ccc(C(F)(F)F)cc32)CC1
inactive: dose: 6.25 mg/kg/injection, schedule: Q01DX009 (ip), vehicle: saline 116 % of control | dose: 12.5 mg/kg/injection, schedule: Q01DX009 (ip), vehicle: saline 89 % of control | dose: 12.5 mg/kg/injection, schedule: Q04DX003 (ip), vehicle: saline 101 % of control | dose: 25.0 mg/kg/injection, schedule: Q01DX009 (ip), vehicle: saline 107 % of control | dose: 25.0 mg/kg/injection, schedule: Q04DX003 (ip), vehicle: saline 104 % of control

CCCS(=O)(=O)N1CCCC1
inactive: dose: 100.0 mg/kg/injection, schedule: Q04DX002 (ip), vehicle: saline with Tween-80 99 % of control | dose: 200.0 mg/kg/injection, schedule: Q04DX002 (ip), vehicle: saline with Tween-80 105 % of control | dose: 400.0 mg/kg/injection, schedule: Q04DX002 (ip), vehicle: saline with Tween-80 99 % of control

CCCCOC(=O)c1[nH]cnc1/N=N\N(C)C
inactive: dose: 10.0 mg/kg/injection, schedule: Q01DX009 (ip), vehicle: carboxymethylcellulose (CMC) 100 % of control | dose: 18.0 mg/kg/injection, schedule: Q01DX001 (ip), vehicle: other 98 % of control | dose: 20.0 mg/kg/injection, schedule: Q01DX009 (ip), vehicle: carboxymethylcellulose (CMC) 109 % of control | dose: 28.0 mg/kg/injection, schedule: Q01DX001 (ip), vehicle: other 93 % of control | dose: 40.0 mg/kg/injection, schedule: Q01DX009 (ip), vehicle: carboxymethylcellulose (CMC) 114 % of control | dose: 42.0 mg/kg/injection, schedule: Q01DX001 (ip), vehicle: other 100 % of control | dose: 63.0 mg/kg/injection, schedule: Q01DX001 (ip), vehicle: other 102 % of control | dose: 72.0 mg/kg/injection, schedule: Q01DX015 (ip), vehicle: other 110 % of control | dose: 100.0 mg/kg/injection, schedule: Q01DX001 (ip), vehicle: other 111 % of control | dose: 120.0 mg/kg/injection, schedule: Q01DX015 (ip), vehicle: other 101 % of control

CN1C=CC(=Cc2ccccc2)C=C1
inactive: dose: 12.5 mg/kg/injection, schedule: Q04DX002 (ip), vehicle: Klucel (hydroxypropylcellulose) (HPC) 90 % of control | dose: 25.0 mg/kg/injection, schedule: Q04DX002 (ip), vehicle: Klucel (hydroxypropylcellulose) (HPC) 107 % of control | dose: 50.0 mg/kg/injection, schedule: Q04DX002 (ip), vehicle: Klucel (hydroxypropylcellulose) (HPC) 107 % of control

CCCCCCCC/C=C/CCCCCCCCC1=NCCN1CCO
inactive: dose: 2.5 mg/kg/injection, schedule: Q01DX009 (ip), vehicle: saline 104 % of control | dose: 5.0 mg/kg/injection, schedule: Q01DX009 (ip), vehicle: saline 93 % of control | [12] 90 % of control | dose: 10.0 mg/kg/injection, schedule: Q01DX009 (ip), vehicle: saline 104 % of control | [13] 92 % of control

O=C(Nc1ccccc1F)OCCc1ccccn1
inactive: [9] 102 % of control | [10] 105 % of control | [11] 91 % of control

CCCCCCCCCCCCCCCCCSc1ccc2ccccc2c1
inactive: [14] 97 % of control | [16] 100 % of control | [18] 95 % of control
